Key:
Type in all cases: in vivo
Echinochloa crus-galli [1] = assay: Post-emergence herbicidal effect; settings: one-leaf stage, 320 g/ha, assessed visually after about 3 weeks, 100% = plants have died
Description: (§1) ECHCG: Echinochloa crus-galli Seeds of monocotyledonous and dicotyledonous weed and crop plants are laid out in sandy loam soil in wood-fibre pots, covered with soil and cultivated in a greenhouse under good growth conditions. 2 to 3 weeks after sowing, the test plants are treated at the one-leaf stage. The compounds of the invention, formulated in the form of wettable powders (WP) or as emulsion concentrates (EC), are then sprayed onto the green parts of the plants as aqueous suspension or emulsion at a water application rate equating to 600 to 800 L/ha with addition of 0.2% wetting agent. After the test plants have been left to stand in the greenhouse under optimal growth conditions for about 3 weeks, the action of the preparations is assessed visually in comparison to untreated controls (herbicidal action in percent (%): 100% activity=the plants have died, 0% activity=like control plants).

Setaria viridis [2] = assay: Post-emergence herbicidal effect; settings: one-leaf stage, 320 g/ha, assessed visually after about 3 weeks, 100% = plants have died
Description: as §1, with “SETVI: Setaria viridis” for “ECHCG: Echinochloa crus-galli”

Alopecurus myosuroides = assay: Pre-emergence herbicidal effect; settings: 320 g/ha, scored visually after 3 weeks vs untreated controls, 100% = plants have died
Source text: (§2) Seeds of monocotyledonous and dicotyledonous weed plants and crop plants are laid out in sandy loam soil in wood-fibre pots and covered with soil. The compounds of the invention, formulated in the form of wettable powders (WP) or as emulsion concentrates (EC), are then applied to the surface of the covering soil as aqueous suspension or emulsion at a water application rate equating to 600 to 800 L/ha with addition of 0.2% wetting agent. After the treatment, the pots are placed in a greenhouse and kept under good growth conditions for the trial plants. The damage to the test plants is scored visually after a test period of 3 weeks by comparison with untreated controls (herbicidal activity in percent (%): 100% activity=the plants have died, 0% activity=like control plants). ALOMY: Alopecurus myosuroides

Avena fatua [3] = assay: Pre-emergence herbicidal effect; settings: 320 g/ha, scored visually after 3 weeks vs untreated controls, 100% = plants have died
Source text: as §2, with “AVEFA: Avena fatua” for “ALOMY: Alopecurus myosuroides”

Echinochloa crus-galli [4] = assay: Pre-emergence herbicidal effect; settings: 320 g/ha, scored visually after 3 weeks vs untreated controls, 100% = plants have died
Source text: as §2, with “ECHCG: Echinochloa crus-galli” for “ALOMY: Alopecurus myosuroides”

Lolium multiflorum = assay: Pre-emergence herbicidal effect; settings: 320 g/ha, scored visually after 3 weeks vs untreated controls, 100% = plants have died
Source text: as §2, with “LOLMU: Lolium multiflorum” for “ALOMY: Alopecurus myosuroides”

Setaria viridis [5] = assay: Pre-emergence herbicidal effect; settings: 320 g/ha, scored visually after 3 weeks vs untreated controls, 100% = plants have died
Source text: as §2, with “SETVI: Setaria viridis” for “ALOMY: Alopecurus myosuroides”

Avena fatua [6] = assay: Post-emergence herbicidal effect; settings: one-leaf stage, 320 g/ha, assessed visually after about 3 weeks, 100% = plants have died
Description: as §1, with “AVEFA: Avena fatua” for “ECHCG: Echinochloa crus-galli”

Structure (SMILES) | Post-emergence effectiveness ECHCG (herbicidal action in percent) (Echinochloa crus-galli [1]) [%] | Post-emergence effectiveness SETVI (herbicidal action in percent) (Setaria viridis [2]) [%] | Pre-emergence action ALOMY (herbicidal activity in percent) (Alopecurus myosuroides) [%] | Pre-emergence action AVEFA (herbicidal activity in percent) (Avena fatua [3]) [%] | Pre-emergence action ECHCG (herbicidal activity in percent) (Echinochloa crus-galli [4]) [%] | Pre-emergence action LOLMU (herbicidal activity in percent) (Lolium multiflorum) [%] | Pre-emergence action SETVI (herbicidal activity in percent) (Setaria viridis [5]) [%] | Post-emergence effectiveness AVEFA (herbicidal action in percent) (Avena fatua [6]) [%]
CCc1cc(C)cc(C)c1C1=C(OC(=O)C(C)(C)C)C2=CCOCCN2C1=O [Ib-3-7] | 90 | 100 | – | – | – | – | – | –
CCOC(=O)OC1=C(c2c(C)cc(Br)cc2C)C(=O)N2CCOCC=C12 [Ib-3-11] | 80 | 90 | – | – | – | – | – | –
COc1cc(C)cc(Cl)c1C1=C(OC(C)=O)C2CCOCCN2C1=O (centres unmarked) [Ib-1-24] | – | – | 90 | 90 | 100 | 100 | 100 | –
COc1cc(C)cc(Cl)c1C1=C(OC(=O)C(C)(C)C)C2CCOCCN2C1=O (centres unmarked) [Ib-1-23] | – | – | 100 | 90 | 100 | 100 | 100 | –
CCc1cc(C)cc(CC)c1C1=C(OC(=O)OC)C2COCCCN2C1=O (centres unmarked) [Ib-2-5] | 100 | 100 | – | – | – | – | – | –
Cc1cc(C)c(C2=C(OC(=O)C(C)(C)C)C3COCCCN3C2=O)c(C)c1 (centres unmarked) [Ib-2-4] | 90 | 100 | – | – | – | – | – | –
CCc1cc(C)cc(CC)c1C1=C(OC(=O)OCCOC)C2CCOCCN2C1=O (centres unmarked) [Ib-1-5] | – | – | 100 | 100 | 100 | 100 | 100 | –
COc1cc(C)cc(Cl)c1C1=C(OC(=O)C(C)(C)C)C2=CCOCCN2C1=O [Ib-3-16] | – | – | 90 | – | 80 | 90 | 90 | –
CCc1cc(C)cc(C)c1C1=C(O)C2=CCOCCN2C1=O [Ia-3-2] | 100 | – | – | – | – | – | – | 100
CCc1cc(C)cc(CC)c1C1=C(O)C2=CCOCCN2C1=O [Ia-3-3] | 100 | 100 | 80 | – | – | 100 | – | –
CCOC(=O)OC1=C(c2c(CC)cc(Cl)cc2OC)C(=O)N2CCOCC=C12 [Ib-3-9] | 90 | 100 | – | – | – | – | – | –
CCOC(=O)OC1=C(c2ccc(C)cc2OC)C(=O)N2CCOCCC12 (centres unmarked) [Ib-1-26] | – | – | 90 | – | – | 90 | – | –
CCOC(=O)OC1=C(c2c(CC)cc(C)cc2CC)C(=O)N2CCOCC=C12 [Ib-3-2] | 80 | 90 | – | – | – | – | – | –
COC(=O)OC1=C(c2c(Cl)cc(C)cc2OC)C(=O)N2CCOCCC12 (centres unmarked) [Ib-1-21] | – | – | 100 | 90 | 100 | 100 | 100 | –
COc1cc(C)cc(Cl)c1C1=C(OC(C)=O)C2=CCOCCN2C1=O [Ib-3-13] | – | – | 100 | 90 | 100 | 100 | 100 | –
CCOC(=O)OC1=C(c2c(C)cc(C)cc2CC)C(=O)N2CCOCC=C12 [Ib-3-6] | 90 | 90 | – | – | – | – | – | –
CCOC(=O)OC1=C(c2c(Cl)cc(C)cc2OC)C(=O)N2CCOCCC12 (centres unmarked) [Ib-1-22] | – | – | 90 | 100 | 100 | 100 | 100 | –
CCOC(=O)OC1=C(c2c(CC)cc(C)cc2CC)C(=O)N2CCCOCC12 (centres unmarked) [Ib-2-6] | 100 | 100 | – | – | – | – | – | –
CCOC(=O)OC1=C(c2c(C)cc(C)cc2C)C(=O)N2CCCOCC12 (centres unmarked) [Ib-2-3] | 90 | 90 | – | – | – | – | – | –
COC(=O)OC1=C(c2c(C)cc(C)cc2C)C(=O)N2CCCOCC12 (centres unmarked) [Ib-2-2] | 90 | 90 | – | – | – | – | – | –
CC(=O)OC1=C(c2c(C)cc(C)cc2C)C(=O)N2CCCOCC12 (centres unmarked) [Ib-2-1] | 100 | 100 | – | – | – | – | – | –
CCc1cc(C)cc(C)c1C1=C(OC(=O)OC)C2=CCOCCN2C1=O [Ib-3-5] | 90 | 90 | 100 | – | – | 80 | – | –
Cc1cc(C)c(C2=C(O)C3=CCOCCN3C2=O)c(C)c1 [Ia-3-1] | 90 | – | – | – | – | – | – | 80
COc1cc(C)cc(Cl)c1C1=C(O)C2CCOCCN2C1=O (centres unmarked) [Ia-1-8] | – | – | 90 | – | – | 100 | – | –
CCc1cc(C)cc(CC)c1C1=C(OC(=O)C(C)(C)C)C2=CCOCCN2C1=O [Ib-3-3] | 90 | 100 | – | – | – | – | – | –

Source: US20190119298A1, “FUSED 3-PHENYLTETRAMIC ACID DERIVATIVES HAVING HERBICIDAL ACTION” (Bayer CropScience Aktiengesellschaft, priority 2016, published 2019)
